Values quoted from earlier work, collected in patent publication US20240277651A1, “MIXED GLYCEROL ESTER COMPOSITION” (priority 2021, published 2024).

System: pathogenic, gram-positive bacteria
Details: Skrivanova et al, Veterinarni Medicina, 51, 2006

CCCCCCCCCCCC(=O)OCC(O)CO (stereo not shown) [monolaurin]
Inhibitory action on pathogenic, gram-positive bacteria: inhibitory action
